Measurements taken from US9023844B2, “Heterocyclylpyri (mi) dinylpyrazole as fungicidals” (Bayer Intellectual Property GmbH, priority 2011, dated 2015).
Read-outs that look alike come from different tables or passages of the source.

How the values were obtained:
[1] = Determination of log P values by HPLC on a reverse phase column (C18), EEC-Directive 79/831 Annex V.A8 (Methods A, B, C); format: physicochemical; details: for chromatographic logP: reverse phase C18 HPLC column
How it was run: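 LogP was determined by C18 reverse-phase HPLC/UPLC with acetonitrile/water eluents containing formic acid. Method A used a 10–95% acetonitrile gradient over 4.25 min at 55 °C and 2.0 mL/min. Method B used 5–95% over 1.70 min at 55 °C and 2.0 mL/min, and Method C used 10–95% over 3.25 min at 40 °C and 0.8 mL/min, with MS detection.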

[2] = test system: DON/Acetyl-DON production by Fusarium graminearum; assay: microbe, parasite or virus in culture; format: cell-based; details: at 50 μM
Leptosphaeria nodorum = assay: Example C: Leptosphaeria test (wheat) / preventive; format: in vivo
Pyricularia oryzae = format: in vivo
Sphaerotheca fuliginea = assay: Example A: Sphaerotheca test (cucumber) / preventive; format: in vivo
Fusarium graminearum [3] = assay: microbe, parasite or virus in culture; format: cell-based; details: for Growth inhibition of Fusarium graminearum in %: at 50 μM
Pyrenophora teres = assay: Example D: Pyrenophora test (barley) / preventive; format: in vivo
Uromyces appendiculatus = assay: Example B: Uromyces test (beans) / preventive; format: in vivo; details: in vivo
Phytophthora infestans = format: in vivo
Fusarium graminearum [4] = format: in vivo; details: in vivo
Venturia inaequalis = assay: Example I: Venturia test (apples) / preventive; details: 100 ppm of active ingredient, preventive spray, evaluated 10 days after inoculation
Procedure: After the spray coating has dried on, the plants are inoculated with an aqueous conidia suspension of the causal agent of apple scab (Venturia inaequalis) and then remain for 1 day in an incubation cabinet at approximately 20° C. and a relative atmospheric humidity of 100%.
The plants are then placed in a greenhouse at approximately 21° C. and a relative atmospheric humidity of approximately 90%.
The test is evaluated 10 days after the inoculation.

Puccinia recondita = assay: Example E: Puccinia test (wheat) / preventive; format: in vivo; details: in vivo
Septoria tritici = assay: Example J: Septoria tritici test (wheat) / preventive; format: in vivo; details: in vivo
[5] = test system: Fusarium nivale (var. majus); assay: Example K: Fusarium nivale (var. majus) test (wheat) / preventive; format: in vivo; details: 500 ppm of active ingredient, preventive spray, evaluated 5 days after inoculation
Procedure: After the spray coating has been dried, the plants are slightly injured by using a sandblast and afterwards they are sprayed with a conidia suspension of Fusarium nivale (var. majus).
The test is evaluated 5 days after the inoculation.

Plasmopara viticola = assay: Example H: Plasmopara test (grapevines) / preventive; format: in vivo; details: in vivo
[6] = Method B (HPLC, reverse phase C18)

Row | Structure (SMILES) | LogP [1, 6] | Inhibition of DON/AcDON in % [2] [%] | efficacy (Leptosphaeria nodorum; in vivo) [%] | efficacy (Pyricularia oryzae; in vivo) [%] | efficacy (Sphaerotheca fuliginea; in vivo) [%] | Growth inhibition of Fusarium graminearum in % (Fusarium graminearum [3]) [%] | efficacy (Pyrenophora teres; in vivo) [%] | efficacy (Uromyces appendiculatus) [%] | efficacy (Fusarium graminearum [4]) [%] | efficacy (Puccinia recondita) [%] | efficacy (Septoria tritici) [%] | efficacy [5] [%] | further results
1 | CC(=O)Nc1cc(-c2c(-c3ccc(F)cc3)nn3c2OCC3)ccn1 [Example 1] | 1.19 | 98 | 88 | 70 | 75 | 90 | 95 |  |  |  |  |  | 
2 | CC(=O)Nc1cc(-c2c(-c3ccc(F)cc3)nn3c2OCCC3)ccn1 [Example 2] | 1.22 | 100 | 88 | 90 | 100 | 57 | 100 | 74 |  |  |  |  | efficacy (Phytophthora infestans; in vivo): 92%
3 | O=C(Nc1cc(-c2c(-c3ccc(F)cc3)nn3c2OCC3)ccn1)C1CC1 [Example 3, N-{4-[6-(4-fluorophenyl)-2,3-dihydropyrazolo[5,1-b][1,3]oxazol-7-yl]pyridin-2-yl}cyclopropanecarboxamide] |  |  |  |  |  |  |  |  |  |  |  |  | chromatographic logP ([1]; Method B (HPLC, reverse phase C18), read-out: LogP): 1.48; chromatographic logP ([1]; pH 2.7, values in the synthesis examples, HPLC, reverse phase C18, read-out: log P (pH 2.7)): 1.48; inhibition at 50 µM ([2]; Fusarium graminearum, read-out: Inhibition of DON/AcDON in %): 98%; efficacy (Leptosphaeria nodorum; 500 ppm of active ingredient, wheat, preventive spray, evaluated 7-9 days after inoculation): 88%; efficacy (Pyricularia oryzae; 500 ppm of active ingredient, rice, preventive spray, evaluated 7 days after inoculation): 95%; efficacy (Phytophthora infestans; 100 ppm of active ingredient, tomatoes, preventive spray, evaluated 3 days after inoculation): 92%; efficacy (Sphaerotheca fuliginea; 500 ppm of active ingredient, cucumber, preventive spray, evaluated 7 days after inoculation): 93%; inhibition at 50 µM (Fusarium graminearum [3]; Fusarium graminearum, read-out: Growth inhibition of Fusarium graminearum in %): 57%; efficacy (Pyrenophora teres; 500 ppm of active ingredient, barley, preventive spray, evaluated 7-9 days after inoculation): 100%
4 | CC(C)CC(=O)Nc1cc(-c2c(-c3ccccc3)nn3c2OCCC3)ccn1 [Example 11] | 1.66 |  | 100 | 94 | 100 |  | 100 | 94 | 100 | 100 | 70 | 100 | efficacy (Venturia inaequalis): 100%; efficacy (Plasmopara viticola): 86%
5 | C[C@H](O)C(=O)Nc1cc(-c2c(-c3ccccc3)nn3c2OCCC3)ccn1 [Example 12] | 1.2 |  | 80 | 100 | 83 |  | 100 | 94 | 86 | 100 | 100 | 93 | 
6 | O=C(CC1CC1)Nc1cc(-c2c(-c3ccccc3)nn3c2OCCC3)ccn1 [Example 13] | 1.54 |  |  | 100 | 70 |  | 95 | 92 | 71 | 95 | 100 |  | 
7 | O=C(Nc1cc(-c2c(-c3ccccc3)nn3c2OCCC3)ccn1)C1CCOCC1 [Example 14] | 1.22 | 100 | 95 | 94 | 100 | 95 | 95 | 94 | 86 | 100 | 100 | 100 | 
8 | CCC(C)C(=O)Nc1cc(-c2c(-c3ccc(F)cc3)nn3c2OCCC3)ccn1 (stereo not drawn) [Example 24] | 1.82 | 94 | 95 | 94 | 98 | 91 | 95 | 94 | 90 | 100 | 100 | 100 | 
9 | O=C(CC1CC1)Nc1cc(-c2c(-c3ccc(F)cc3)nn3c2OCCC3)ccn1 [Example 27] | 1.69 |  | 90 | 100 | 95 |  | 95 |  | 86 | 100 | 100 |  | 
10 | O=C(CC(F)(F)F)Nc1cc(-c2c(-c3ccc(F)cc3)nn3c2OCCC3)ccn1 [Example 31] | 2.13 |  |  | 94 | 88 |  | 95 | 92 | 86 | 100 | 100 | 100 | 
